Experimental data taken from patent publication US8389523B2, “Substituted quinoxaline and an agrochemical composition thereof” (Kumiai Chemical Industry Co., Ltd., priority 2007, dated 2013).

Tests used:
Format in all cases: in vivo
Set-up in all cases: scale not given here
[1] = test system: Scirpus juncoides Roxb. var. ohwianus. T. Koyama; test: Herbicidal effects in paddy field soil treatment (Test Example 1); conditions: for Herbicidal effects index, Scirpus juncoides Roxb. var. ohwianus. T. Koyama: paddy field soil treatment, 1000 g of the active ingredient per hectare, wettable powder added dropwise on water surface, 21st day after treatment
Summary of the method: (§1)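 Weed seeds were sown into puddled, leveled paddy soil in pots and flooded to 3 cm water depth. One day later the diluted wettable powder formulation was dropped onto the water surface at 1000 g active ingredient per hectare. Herbicidal effect was scored on day 21 after greenhouse growth.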

[2] = test system: Echinochloa oryzicola Vasing; test: as above; conditions: for Herbicidal effects index, Echinochloa oryzicola Vasing: paddy field soil treatment, 1000 g of the active ingredient per hectare, wettable powder added dropwise on water surface, 21st day after treatment
Summary of the method: as §1

[3] = test system: Monochoria vaginalis (Burm. f.) Presl var. plantaginea (Roxb.) Solms-Laub.; test: as above; conditions: for Herbicidal effects index, Monochoria vaginalis (Burm. f.) Presl var. plantaginea (Roxb.) Solms-Laub.: paddy field soil treatment, 1000 g of the active ingredient per hectare, wettable powder added dropwise on water surface, 21st day after treatment
Summary of the method: as §1

[4] = test system: Echinochloa crus-galli (L.) P. Beauv. var. crus-galli; test: Herbicidal effects in upland field foliar treatment (Test Example 3); conditions: criteria of Table 138; for herbicidal effect (index) on Echinochloa crus-galli (L.) P. Beauv. var. crus-galli: 1000 g active ingredient per hectare, 14th day after treatment; for herbicidal effects on Echinochloa crus-galli (L.) P. Beauv. var. crus-galli: 1000 g of the active ingredient per hectare, 14th day after the treatment, wettable powder
Method: (§2) Test Example 3 Test on Herbicidal Effects in Upland Field Foliar Treatment A 80-cm^2 plastic pot was filled with upland field soil. Seeds of Echinochloa crus-galli (L.) P. Beauv. var. crus-galli, Abutilon theophrasti medicus and Amaranthus viridis L. were sowed, and the plants were grown for two weeks in a greenhouse. A wettable powder formulation prepared according to Preparation Example 1 was diluted with water, and was sprayed with a small sprayer to perform foliar application over the entirety of plants from the upper side, in an amount equivalent to 1000 liters per hectare, such that 1000 g of the active ingredient per hectare was applied. Thereafter, the plants were grown in a greenhouse, and on the 14th day after the treatment, the herbicidal effects were investigated according to the criteria described in the Table 138 shown above.

[5] = test system: Amaranthus viridis L.; test: as above; conditions: criteria of Table 138; for herbicidal effect (index) on Amaranthus viridis L.: 1000 g active ingredient per hectare, 14th day after treatment; for herbicidal effects on Amaranthus viridis L.: 1000 g of the active ingredient per hectare, 14th day after the treatment, wettable powder
Method: as §2

[6] = test system: Abutilon theophrasti medicus; test: as above; conditions: criteria of Table 138; for herbicidal effect (index) on Abutilon theophrasti medicus: 1000 g active ingredient per hectare, 14th day after treatment; for herbicidal effects on Abutilon theophrasti medicus: 1000 g of the active ingredient per hectare, 14th day after the treatment, wettable powder
Method: as §2

[7] = test system: Amaranthus viridis L.; test: Herbicidal effects in upland field soil treatment (Test Example 2); conditions: 1000 g active ingredient per hectare, 21st day after treatment, criteria of Table 138
Summary of the method: (§3)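 Pre-emergence soil application: seeds sown in upland field soil, covered, then wettable powder diluted in water sprayed on the soil surface at 1000 g active ingredient/ha in 1000 L/ha. Plants grown in greenhouse; herbicidal effect scored on a rating scale 21 days after treatment.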

[8] = test system: Abutilon theophrasti medicus; test: as above; conditions: 1000 g active ingredient per hectare, 21st day after treatment, criteria of Table 138
Summary of the method: as §3

[9] = paddy field soil treatment (Test Example 1), criteria of Table 138

O=C1CCCC(O)=C1C(=O)c1nc2ccccc2n(-c2ccc3occc3c2)c1=O [I-277]
4: herbicidal effect (index) on Abutilon theophrasti medicus [8]
5: Herbicidal effects index, Scirpus juncoides Roxb. var. ohwianus. T. Koyama [1] | Herbicidal effects index, Echinochloa oryzicola Vasing [2] | Herbicidal effects index, Monochoria vaginalis (Burm. f.) Presl var. plantaginea (Roxb.) Solms-Laub. [3] | herbicidal effect (index) on Echinochloa crus-galli (L.) P. Beauv. var. crus-galli [4] | herbicidal effect (index) on Amaranthus viridis L. [5] | herbicidal effect (index) on Abutilon theophrasti medicus [6] | herbicidal effect (index) on Amaranthus viridis L. [7]

COc1cccc(-n2c(=O)c(C(=O)C3=C(O)CCCC3=O)nc3cccnc32)c1 [IV-57]
5: herbicidal effect (index) on Scirpus juncoides Roxb. var. ohwianus. T. Koyama [1, 9] | herbicidal effect (index) on Monochoria vaginalis (Burm. f.) Presl var. plantaginea (Roxb.) Solms-Laub. [3, 9] | herbicidal effects on Amaranthus viridis L. [5] | herbicidal effects on Abutilon theophrasti medicus [6] | herbicidal effect (index) on Amaranthus viridis L. [7] | herbicidal effect (index) on Abutilon theophrasti medicus [8]
4: herbicidal effect (index) on Echinochloa oryzicola Vasing [2, 9] | herbicidal effects on Echinochloa crus-galli (L.) P. Beauv. var. crus-galli [4]

O=C1CCCC(O)=C1C(=O)c1nc2ccccc2n(-c2ncccn2)c1=O [I-195]
5: herbicidal effect (index) on Echinochloa crus-galli (L.) P. Beauv. var. crus-galli [4] | herbicidal effect (index) on Amaranthus viridis L. [5] | herbicidal effect (index) on Abutilon theophrasti medicus [6] | herbicidal effect (index) on Amaranthus viridis L. [7] | herbicidal effect (index) on Abutilon theophrasti medicus [8]

COc1cc(-n2c(=O)c(C(=O)C3=C(O)CCCC3=O)nc3c(F)cccc32)cc(OC)c1OC [II-234]
5: herbicidal effects on Amaranthus viridis L. [5] | herbicidal effects on Abutilon theophrasti medicus [6] | herbicidal effect (index) on Amaranthus viridis L. [7] | herbicidal effect (index) on Abutilon theophrasti medicus [8]
4: herbicidal effects on Echinochloa crus-galli (L.) P. Beauv. var. crus-galli [4]

Cn1c(=O)c(C(=O)C2=C(O)C3CCC(C3)C2=O)nc2ccccc21 (centres unmarked) [I-5]
5: herbicidal effect (index) on Amaranthus viridis L. [5] | herbicidal effect (index) on Abutilon theophrasti medicus [6] | herbicidal effect (index) on Amaranthus viridis L. [7] | herbicidal effect (index) on Abutilon theophrasti medicus [8]
4: herbicidal effect (index) on Echinochloa crus-galli (L.) P. Beauv. var. crus-galli [4]

CSCn1c(=O)c(C(=O)C2=C(O)C3CCC(C3)C2=O)nc2ccccc21 (centres unmarked) [I-71]
5: herbicidal effect (index) on Echinochloa crus-galli (L.) P. Beauv. var. crus-galli [4] | herbicidal effect (index) on Amaranthus viridis L. [5] | herbicidal effect (index) on Abutilon theophrasti medicus [6] | herbicidal effect (index) on Amaranthus viridis L. [7] | herbicidal effect (index) on Abutilon theophrasti medicus [8]

O=C1CCCC(O)=C1C(=O)c1nc2ccccc2n(C2CCCC2)c1=O [I-21]
5: herbicidal effect (index) on Echinochloa crus-galli (L.) P. Beauv. var. crus-galli [4] | herbicidal effect (index) on Amaranthus viridis L. [5] | herbicidal effect (index) on Abutilon theophrasti medicus [6] | herbicidal effect (index) on Amaranthus viridis L. [7] | herbicidal effect (index) on Abutilon theophrasti medicus [8]

O=C1CCCC(O)=C1C(=O)c1nc2cccnc2n(CCc2ccccc2)c1=O [III-235]
5: Herbicidal effects index, Scirpus juncoides Roxb. var. ohwianus. T. Koyama [1] | Herbicidal effects index, Echinochloa oryzicola Vasing [2] | Herbicidal effects index, Monochoria vaginalis (Burm. f.) Presl var. plantaginea (Roxb.) Solms-Laub. [3] | herbicidal effects on Echinochloa crus-galli (L.) P. Beauv. var. crus-galli [4] | herbicidal effects on Amaranthus viridis L. [5] | herbicidal effects on Abutilon theophrasti medicus [6]
